In brackets after ≈: the same amount, converted by molar mass. Like-named read-outs stand apart in the source and are kept apart here.
Columns and labels:
PBMCs = details: read-out: IC50 (toxicity on PBMCs); cited from earlier work
[1] = Solubility in test solution; type: physicochemical; details: solution with a maximum of 1% DMSO
Plasmodium berghei = details: P. berghei infected mice, cited from earlier work
HL-7702 = HL-7702 cells; cited from earlier work
rodent = details: cited from earlier work
murine macrophage cells = details: cited from earlier work

Structure (SMILES): Cc1cc(O)c2c(c1)C(=O)C(O)=CC2=O [2,5-Dihydroxy-7-methyl-1,4-naphthoquinone]
- IC50 (PBMCs): 54 µM

Structure (SMILES): Cc1cc(O)c2c(c1F)C(=O)C=CC2=O [8-Fluoro-5-hydroxy-7-methyl-1,4-naphthoquinone]
- IC50 (PBMCs): 189 µM

Structure (SMILES): O=C1C(O)=C(Nc2ccccc2)C(=O)c2ccccc21 [4a, 2-hydroxy-3-anilino-1,4-naphthoquinone]
- Solubility [1]: soluble in the solution with a maximum of 1% DMSO
- Parasitemia inhibition (%) Day 5 (Plasmodium berghei; vs untreated control): 53.3%
- Parasitemia inhibition (%) Day 7 (Plasmodium berghei; vs untreated control): 18.5%
- Mean Survival (Plasmodium berghei): 32.5 ± 6.6 days
- Parasitemia Day 5 (Plasmodium berghei; first Parasitemia column): 0.7
- Parasitemia Day 5 (Plasmodium berghei; second Parasitemia column, head printed Day 5): 2.2

Structure (SMILES): O=C1C=C(O)C(=O)c2ccccc21 [2-hydroxy-1,4-naphthoquinone]
- Relative cytotoxicity among six naphthoquinones (HL-7702): less toxic
- In vivo toxicity (rodent): highly toxic, causing both hemolytic anaemia and renal tubular necrosis

Structure (SMILES): COc1cc(C=O)ccc1O [vanillin]
- IC50 (murine macrophage cells): 645 µg/mL (≈ 4.24 mM)

Structure (SMILES): Cc1cc(O)c2c(c1)C(=O)C=CC2=O [7-MJ, 5-Hydroxy-7-methyl-1,4-naphthoquinone]
- IC50 (PBMCs): 18.4 µM

— PMC5617738 (Toxicology Reports, 2016)
